Key:
[1] = biological target: T1, T790M/L858R/C797S transformed Ba/F3 cells (Homo sapiens, UniProt P00533, T790M/C797S/L858R, cells depend on it); assay: Ba/F3 cell proliferation (MTS) assay, T790M/L858R/C797S; type: cell-based, murine; conditions: antiproliferative activity
T1 construct: The constructs were shuttled into the retroviral vector JP 1540 using the BD Creator™ System (BD Biosciences)

[2] = biological target: T2, T790M/L858R transformed Ba/F3 cells (Homo sapiens, UniProt P00533, T790M/L858R, cells depend on it); assay: Ba/F3 cell proliferation (MTS) assay, T790M/L858R; type: cell-based, murine; conditions: for EC50: antiproliferative activity; for % control: compound at 1 μM, inhibition of growth as percent of control
T2 construct: The constructs were shuttled into the retroviral vector JP 1540 using the BD Creator™ System (BD Biosciences)
Text: The EGFR mutant L858R, Del E746_A750, L858R/T790M, DelE746_A750/T790M, L858R/T790M/C797S and Del/T790M/C797S Ba/F3 cells have been previously described (Zhou, W., Ercan, D., Chen, L., Yun, C. H., Li, D., Capelletti, M., Cortot, A. B., Chirieac, L., Iacob, R. E., Padera, R., et al. “Novel mutant-selective EGFR kinase inhibitors against EGFR T790M,” Nature 462, (2009), 1070-1074). All cell lines were maintained in RPMI 1640 (Cellgro; Mediatech Inc., Herndon, Calif.) supplemented with 10% FBS 100 units/mL penicillin, 100 units/mL streptomycin, and 2 mM glutamine. L858R cells were maintained in ACL-4 media (Invitrogen, Carlsbad, Calif.) supplemented with 5% FBS, 100 units/mL penicillin, 100 units/mL streptomycin, and 2 mM glutamine. The EGFR I941R mutation was introduced via site directed mutagenesis using the Quick Change Site-Directed Mutagenesis kit (Stratagene; La Jolla, Calif.) according to the manufacturer's instructions. All constructs were confirmed by DNA sequencing. The constructs were shuttled into the retroviral vector JP 1540 using the BD Creator™ System (BD Biosciences). Ba/F3 cells were infected with retrovirus and according to standard protocols, as described previously (Zhou et al, Nature 2009). Stable clones were obtained by selection in puromycin (2 μg/ml).
Growth and inhibition of growth was assessed by MTS assay and was performed according to previously established methods (Zhou et al., Nature 2009). The MTS assay is a colorimetric method for determining the number of viable cells that is based on the bioreduction of MTS by cells to a formazan product that is soluble in cell culture medium and can be detected spectrophotometrically. Ba/F3 cells of different EGFR genotypes were exposed to treatment for 72 hours and the number of cells used per experiment determined empirically and has been previously established (Zhou et al., Nature 2009). All experimental points were set up in six wells and all experiments were repeated at least three times. […] The curves were fitted using a non-linear regression model with a sigmoidal dose response.
Compounds of Table 1 were tested at a concentration of 1 μM against T790M/L858R transformed Ba/F3 cells. The assay, as described in Example 42, measured inhibition of growth as a percent of the inhibitory activity of the control. In Table 1, A is 0<% control <25, B is 25<% control <50, C is 50<% control <75, and D is 75<% control.
Compounds of Table 2 were tested in a T790M/L858R transformed Ba/F3 cell line as described in Example 42 and the EC50 values were calculated. In Table 2, A is EC50<500 nM, B is 500 nM<EC50<1000 nM, C is 1000 nM<EC50<5000 nM, and D is 5000 nM<EC50.

T1 sequence (P00533 whole entry T790M/C797S/L858R): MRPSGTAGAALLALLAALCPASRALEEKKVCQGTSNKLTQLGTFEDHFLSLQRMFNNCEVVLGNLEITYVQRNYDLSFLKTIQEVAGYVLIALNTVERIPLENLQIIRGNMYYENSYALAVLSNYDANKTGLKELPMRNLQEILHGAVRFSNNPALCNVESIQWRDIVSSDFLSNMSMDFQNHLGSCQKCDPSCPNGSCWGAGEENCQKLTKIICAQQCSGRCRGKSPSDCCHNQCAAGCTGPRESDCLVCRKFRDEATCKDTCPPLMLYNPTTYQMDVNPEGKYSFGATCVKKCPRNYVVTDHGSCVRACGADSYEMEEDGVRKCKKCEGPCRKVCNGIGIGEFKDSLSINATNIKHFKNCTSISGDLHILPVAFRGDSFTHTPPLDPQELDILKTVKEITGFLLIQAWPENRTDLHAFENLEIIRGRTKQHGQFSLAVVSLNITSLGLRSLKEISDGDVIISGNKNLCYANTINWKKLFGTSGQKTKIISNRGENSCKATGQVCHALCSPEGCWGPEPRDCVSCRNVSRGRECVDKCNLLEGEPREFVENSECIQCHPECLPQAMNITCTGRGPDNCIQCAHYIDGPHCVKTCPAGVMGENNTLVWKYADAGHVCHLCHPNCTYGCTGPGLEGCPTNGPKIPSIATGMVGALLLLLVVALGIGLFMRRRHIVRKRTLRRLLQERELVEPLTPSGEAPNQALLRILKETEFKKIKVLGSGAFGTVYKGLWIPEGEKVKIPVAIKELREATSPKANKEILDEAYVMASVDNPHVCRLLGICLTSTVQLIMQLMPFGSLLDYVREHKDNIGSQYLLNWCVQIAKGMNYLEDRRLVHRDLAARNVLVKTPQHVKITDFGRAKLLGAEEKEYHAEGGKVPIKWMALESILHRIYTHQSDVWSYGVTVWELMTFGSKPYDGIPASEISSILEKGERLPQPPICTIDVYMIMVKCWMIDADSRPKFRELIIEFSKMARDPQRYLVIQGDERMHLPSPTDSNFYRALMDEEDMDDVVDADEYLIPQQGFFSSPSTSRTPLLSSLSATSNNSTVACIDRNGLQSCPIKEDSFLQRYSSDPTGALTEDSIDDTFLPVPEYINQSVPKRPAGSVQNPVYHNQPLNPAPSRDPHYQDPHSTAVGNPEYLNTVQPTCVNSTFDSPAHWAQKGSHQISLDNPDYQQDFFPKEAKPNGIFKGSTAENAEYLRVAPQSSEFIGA
T2 sequence (P00533 whole entry T790M/L858R): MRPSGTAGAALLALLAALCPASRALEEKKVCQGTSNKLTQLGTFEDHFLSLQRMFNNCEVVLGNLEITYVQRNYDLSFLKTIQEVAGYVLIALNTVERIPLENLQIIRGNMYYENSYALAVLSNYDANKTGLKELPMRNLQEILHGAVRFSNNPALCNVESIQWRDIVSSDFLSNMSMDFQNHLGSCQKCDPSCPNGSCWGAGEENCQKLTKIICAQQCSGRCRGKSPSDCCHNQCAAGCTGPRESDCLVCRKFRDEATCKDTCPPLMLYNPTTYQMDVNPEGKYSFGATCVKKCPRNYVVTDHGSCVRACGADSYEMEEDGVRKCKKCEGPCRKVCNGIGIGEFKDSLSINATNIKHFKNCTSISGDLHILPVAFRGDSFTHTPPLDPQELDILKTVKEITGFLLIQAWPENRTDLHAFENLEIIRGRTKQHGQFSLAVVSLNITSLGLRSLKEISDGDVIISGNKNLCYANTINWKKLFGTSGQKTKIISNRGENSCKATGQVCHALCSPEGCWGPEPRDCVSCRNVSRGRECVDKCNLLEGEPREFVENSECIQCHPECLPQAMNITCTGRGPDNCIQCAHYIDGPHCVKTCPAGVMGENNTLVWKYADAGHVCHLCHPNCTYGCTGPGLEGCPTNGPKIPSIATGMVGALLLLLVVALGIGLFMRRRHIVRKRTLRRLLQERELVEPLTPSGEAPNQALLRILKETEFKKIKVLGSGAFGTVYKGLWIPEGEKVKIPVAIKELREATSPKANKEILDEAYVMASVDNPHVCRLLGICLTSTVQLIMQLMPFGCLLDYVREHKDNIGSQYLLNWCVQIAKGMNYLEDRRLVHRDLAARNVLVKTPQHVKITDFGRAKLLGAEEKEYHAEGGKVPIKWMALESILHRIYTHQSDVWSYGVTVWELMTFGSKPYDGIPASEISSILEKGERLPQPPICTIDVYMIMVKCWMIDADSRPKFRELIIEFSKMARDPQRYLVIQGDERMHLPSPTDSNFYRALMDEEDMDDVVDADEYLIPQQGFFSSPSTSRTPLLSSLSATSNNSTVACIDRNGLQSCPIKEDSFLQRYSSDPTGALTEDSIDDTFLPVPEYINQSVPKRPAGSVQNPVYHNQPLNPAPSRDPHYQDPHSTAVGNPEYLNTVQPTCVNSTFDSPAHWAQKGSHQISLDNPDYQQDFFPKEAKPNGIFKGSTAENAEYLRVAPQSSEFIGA

EC50 [1] [nM]	EC50 [2] [nM]	% control [2]	Structure (SMILES)
> 5000	1000 to 5000	D (D is 75<% control)	O=C1CCC(N2C(=O)c3cccc(NCCOCCOCCOCCN4CCN(c5ccc(-c6ccc7c(c6)C(=O)N(C(C(=O)Nc6nccs6)c6ccccc6O)C7)cn5)CC4)c3C2=O)C(=O)N1 (stereo not drawn) [Compound I-14, 2-(6-(6-(4-(2-(2-(2-(2-((2-(2,6-Dioxopiperidin-3-yl)-1,3-dioxoisoindolin-4-yl)amino)ethoxy)ethoxy)ethoxy)ethyl)piperazin-1-yl)pyridin-3-yl)-1-oxoisoindolin-2-yl)-2-(2-hydroxyphenyl)-N-(thiazol-2-yl)acetamide]
> 5000	1000 to 5000	C (C is 50<% control <75)	O=C1CCC(N2C(=O)c3cccc(NC4CN(CCOCCOCCN5CCN(c6ccc(-c7ccc8c(c7)C(=O)N(C(C(=O)Nc7nccs7)c7ccccc7)C8)cc6)CC5)C4)c3C2=O)C(=O)N1 (stereo not drawn) [Compound I-15, 2-(6-(4-(4-(2-(2-(2-(3-((2-(2,6-Dioxopiperidin-3-yl)-1,3-dioxoisoindolin-4-yl)amino)azetidin-1-yl)ethoxy)ethoxy)ethyl)piperazin-1-yl)phenyl)-1-oxoisoindolin-2-yl)-2-phenyl-N-(thiazol-2-yl)acetamide]
> 5000	1000 to 5000	C (C is 50<% control <75)	O=C1CCC(N2C(=O)c3cccc(NC4CN(CCOCCOCCOCCN5CCN(c6ccc(-c7ccc8c(c7)C(=O)N(C(C(=O)Nc7nccs7)c7ccccc7)C8)cc6)CC5)C4)c3C2=O)C(=O)N1 (stereo not drawn) [Compound I-16, 2-(6-(4-(4-(2-(2-(2-(2-(3-((2-(2,6-Dioxopiperidin-3-yl)-1,3-dioxoisoindolin-4-yl)amino)azetidin-1-yl)ethoxy)ethoxy)ethoxy)ethyl)piperazin-1-yl)phenyl)-1-oxoisoindolin-2-yl)-2-phenyl-N-(thiazol-2-yl)acetamide]
< 500	< 500	A (A is 0<% control <25)	O=C1CCC(N2C(=O)c3cccc(NCCOCCOCCOCCN4CCN(c5ccc(-c6ccc7c(c6)C(=O)N(C(C(=O)Nc6nccs6)c6ccccc6)C7)cc5)CC4)c3C2=O)C(=O)N1 (stereo not drawn) [Compound I-18, 2-(6-(4-(4-(2-(2-(2-(2-((2-(2,6-Dioxopiperidin-3-yl)-1,3-dioxoisoindolin-4-yl)amino)ethoxy)ethoxy)ethoxy)ethyl)piperazin-1-yl)phenyl)-1-oxoisoindolin-2-yl)-2-phenyl-N-(thiazol-2-yl)acetamide]
< 500	< 500	A (A is 0<% control <25)	O=C1CCC(N2C(=O)c3cccc(NCCOCCOCCOCCOCCN4CCN(c5ccc(-c6ccc7c(c6)C(=O)N(C(C(=O)Nc6nccs6)c6ccccc6)C7)cc5)CC4)c3C2=O)C(=O)N1 (stereo not drawn) [Compound I-20, 2-(6-(4-(4-(14-((2-(2,6-Dioxopiperidin-3-yl)-1,3-dioxoisoindolin-4-yl)amino)-3,6,9,12-tetraoxatetradecyl)piperazin-1-yl)phenyl)-1-oxoisoindolin-2-yl)-2-phenyl-N-(thiazol-2-yl)acetamide]
500 to 1000	< 500	A (A is 0<% control <25)	O=C1CCC(N2C(=O)c3cccc(NCCOCCOCCOCCN4CCN(c5ccc(-c6ccc7c(c6)C(=O)N(C(C(=O)Nc6nccs6)c6ccccc6)C7)cn5)CC4)c3C2=O)C(=O)N1 (stereo not drawn) [Compound I-22, 2-(6-(6-(4-(2-(2-(2-(2-((2-(2,6-Dioxopiperidin-3-yl)-1,3-dioxoisoindolin-4-yl)amino)ethoxy)ethoxy)ethoxy)ethyl)piperazin-1-yl)pyridin-3-yl)-1-oxoisoindolin-2-yl)-2-phenyl-N-(thiazol-2-yl)acetamide]
